Columns and labels:
[1] = biological target: LYNa (Homo sapiens, UniProt P07948); experiment: Kinase screening assay (mobility shift, LabChip); format: biochemical; conditions: 0.5 micromolar compound
Procedure: (§1) A 4× Substrate/ATP/Metal (1 […], 5 mmol/L Mg^2+) solution was prepared with buffer (20 mmol/L HEPES, 0.01% Triton X-100, 5 mmol/L DTT, pH 7.5), and a 2× kinase solution was also prepared with buffer (20 mmol/L HEPES, 0.01% Triton X-100, 1 mmol/L DTT, pH 7.5). 5 μL of 4× compound solution, 5 μL of 4× Substrate/ATP/Metal solution, and 10 μL of 2× kinase solution were mixed and incubated in a well of polypropylene 384 well microplate for 1 hour at room temperature. 70 μL of Termination Buffer (QuickScout Screening Assist MSA) was added to the well. The reaction mixture was applied to LabChip™ system, and the product and substrate peptide peaks were separated and quantitated.

[2] = biological target: KIT (Homo sapiens, UniProt P10721); experiment: Kinase screening assay (mobility shift, LabChip); format: biochemical; conditions: 0.5 micromolar compound
KIT, sequence (P10721 26-976): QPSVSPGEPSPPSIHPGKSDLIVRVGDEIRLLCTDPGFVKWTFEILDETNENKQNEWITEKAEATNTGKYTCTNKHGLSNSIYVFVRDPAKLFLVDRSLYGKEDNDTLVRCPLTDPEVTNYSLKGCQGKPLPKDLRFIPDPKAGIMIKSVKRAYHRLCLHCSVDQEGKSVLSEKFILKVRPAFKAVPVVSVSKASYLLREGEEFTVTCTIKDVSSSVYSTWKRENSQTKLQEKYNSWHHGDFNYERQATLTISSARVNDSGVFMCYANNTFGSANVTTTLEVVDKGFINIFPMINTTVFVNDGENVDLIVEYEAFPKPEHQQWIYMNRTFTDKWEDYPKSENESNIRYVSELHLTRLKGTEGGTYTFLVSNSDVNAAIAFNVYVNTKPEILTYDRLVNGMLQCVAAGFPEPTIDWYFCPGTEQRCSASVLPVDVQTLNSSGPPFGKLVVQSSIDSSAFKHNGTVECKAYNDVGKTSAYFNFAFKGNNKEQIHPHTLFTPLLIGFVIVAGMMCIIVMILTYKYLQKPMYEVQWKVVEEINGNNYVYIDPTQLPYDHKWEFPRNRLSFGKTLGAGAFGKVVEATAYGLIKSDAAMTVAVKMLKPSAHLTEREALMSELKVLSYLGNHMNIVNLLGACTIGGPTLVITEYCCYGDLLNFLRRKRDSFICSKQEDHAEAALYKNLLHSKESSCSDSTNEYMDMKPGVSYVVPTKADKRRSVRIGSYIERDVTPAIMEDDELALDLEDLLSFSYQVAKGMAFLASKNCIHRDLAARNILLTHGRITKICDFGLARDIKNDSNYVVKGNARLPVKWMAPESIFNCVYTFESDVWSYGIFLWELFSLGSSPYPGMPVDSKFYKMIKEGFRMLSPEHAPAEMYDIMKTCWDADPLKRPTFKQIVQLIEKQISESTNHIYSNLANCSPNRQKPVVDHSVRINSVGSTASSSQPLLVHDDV
Procedure: as §1

[3] = biological target: LCK (Homo sapiens, UniProt P06239); experiment: Kinase screening assay (mobility shift, LabChip); format: biochemical; conditions: 0.5 micromolar compound
Procedure: as §1

[4] = biological target: FYNa (Homo sapiens, UniProt P06241); experiment: Kinase screening assay (mobility shift, LabChip); format: biochemical; conditions: 0.5 micromolar compound
FYNa, sequence (P06241 whole entry): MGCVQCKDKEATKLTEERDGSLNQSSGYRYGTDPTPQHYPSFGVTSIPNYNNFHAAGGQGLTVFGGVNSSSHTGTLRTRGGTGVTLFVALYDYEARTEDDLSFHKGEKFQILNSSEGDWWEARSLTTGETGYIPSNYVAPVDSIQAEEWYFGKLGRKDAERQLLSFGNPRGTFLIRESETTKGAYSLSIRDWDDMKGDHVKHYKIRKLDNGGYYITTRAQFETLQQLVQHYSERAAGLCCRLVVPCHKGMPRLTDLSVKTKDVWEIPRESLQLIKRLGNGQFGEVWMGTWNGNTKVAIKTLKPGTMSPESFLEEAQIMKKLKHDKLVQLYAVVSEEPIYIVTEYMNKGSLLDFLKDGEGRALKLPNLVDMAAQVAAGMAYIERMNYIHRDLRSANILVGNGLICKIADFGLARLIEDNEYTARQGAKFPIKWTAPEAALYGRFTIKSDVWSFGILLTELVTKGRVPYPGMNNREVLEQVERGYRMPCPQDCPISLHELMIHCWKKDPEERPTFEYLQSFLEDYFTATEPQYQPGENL
Procedure: as §1

[5] = biological target: RET (Homo sapiens, UniProt P07949); experiment: Kinase screening assay (mobility shift, LabChip); format: biochemical; conditions: 0.5 micromolar compound
Procedure: as §1

[6] = biological target: YES (Homo sapiens, UniProt P07947); experiment: Kinase screening assay (mobility shift, LabChip); format: biochemical; conditions: 0.5 micromolar compound
YES, sequence (P07947 whole entry): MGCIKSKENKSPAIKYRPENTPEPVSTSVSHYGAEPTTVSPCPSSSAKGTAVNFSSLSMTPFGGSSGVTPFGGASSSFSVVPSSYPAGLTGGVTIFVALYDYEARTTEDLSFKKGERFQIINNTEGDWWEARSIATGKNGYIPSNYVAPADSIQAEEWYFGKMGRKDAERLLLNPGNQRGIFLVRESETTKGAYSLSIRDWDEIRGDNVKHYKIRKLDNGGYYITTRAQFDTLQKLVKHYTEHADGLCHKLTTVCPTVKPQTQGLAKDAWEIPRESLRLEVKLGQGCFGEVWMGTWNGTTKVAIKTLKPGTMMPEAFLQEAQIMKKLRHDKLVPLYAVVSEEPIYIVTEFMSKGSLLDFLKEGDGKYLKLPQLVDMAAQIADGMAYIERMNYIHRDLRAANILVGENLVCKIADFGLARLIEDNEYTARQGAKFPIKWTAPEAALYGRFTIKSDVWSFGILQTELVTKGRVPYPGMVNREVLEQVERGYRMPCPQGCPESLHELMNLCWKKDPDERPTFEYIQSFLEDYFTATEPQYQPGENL
Procedure: as §1

[7] = biological target: Her4 (Homo sapiens, UniProt Q15303); experiment: Kinase screening assay (mobility shift, LabChip); format: biochemical; conditions: 0.5 micromolar compound
Procedure: as §1

[8] = biological target: SRC (Homo sapiens, UniProt P12931); experiment: Kinase screening assay (mobility shift, LabChip); format: biochemical; conditions: 0.5 micromolar compound
Procedure: as §1

[9] = biological target: FGR (Homo sapiens, UniProt P09769); experiment: Kinase screening assay (mobility shift, LabChip); format: biochemical; conditions: 0.5 micromolar compound
Procedure: as §1

[10] = biological target: KDR (Homo sapiens, UniProt P35968); experiment: Kinase screening assay (mobility shift, LabChip); format: biochemical; conditions: 0.5 micromolar compound
KDR, sequence (P35968 20-1356): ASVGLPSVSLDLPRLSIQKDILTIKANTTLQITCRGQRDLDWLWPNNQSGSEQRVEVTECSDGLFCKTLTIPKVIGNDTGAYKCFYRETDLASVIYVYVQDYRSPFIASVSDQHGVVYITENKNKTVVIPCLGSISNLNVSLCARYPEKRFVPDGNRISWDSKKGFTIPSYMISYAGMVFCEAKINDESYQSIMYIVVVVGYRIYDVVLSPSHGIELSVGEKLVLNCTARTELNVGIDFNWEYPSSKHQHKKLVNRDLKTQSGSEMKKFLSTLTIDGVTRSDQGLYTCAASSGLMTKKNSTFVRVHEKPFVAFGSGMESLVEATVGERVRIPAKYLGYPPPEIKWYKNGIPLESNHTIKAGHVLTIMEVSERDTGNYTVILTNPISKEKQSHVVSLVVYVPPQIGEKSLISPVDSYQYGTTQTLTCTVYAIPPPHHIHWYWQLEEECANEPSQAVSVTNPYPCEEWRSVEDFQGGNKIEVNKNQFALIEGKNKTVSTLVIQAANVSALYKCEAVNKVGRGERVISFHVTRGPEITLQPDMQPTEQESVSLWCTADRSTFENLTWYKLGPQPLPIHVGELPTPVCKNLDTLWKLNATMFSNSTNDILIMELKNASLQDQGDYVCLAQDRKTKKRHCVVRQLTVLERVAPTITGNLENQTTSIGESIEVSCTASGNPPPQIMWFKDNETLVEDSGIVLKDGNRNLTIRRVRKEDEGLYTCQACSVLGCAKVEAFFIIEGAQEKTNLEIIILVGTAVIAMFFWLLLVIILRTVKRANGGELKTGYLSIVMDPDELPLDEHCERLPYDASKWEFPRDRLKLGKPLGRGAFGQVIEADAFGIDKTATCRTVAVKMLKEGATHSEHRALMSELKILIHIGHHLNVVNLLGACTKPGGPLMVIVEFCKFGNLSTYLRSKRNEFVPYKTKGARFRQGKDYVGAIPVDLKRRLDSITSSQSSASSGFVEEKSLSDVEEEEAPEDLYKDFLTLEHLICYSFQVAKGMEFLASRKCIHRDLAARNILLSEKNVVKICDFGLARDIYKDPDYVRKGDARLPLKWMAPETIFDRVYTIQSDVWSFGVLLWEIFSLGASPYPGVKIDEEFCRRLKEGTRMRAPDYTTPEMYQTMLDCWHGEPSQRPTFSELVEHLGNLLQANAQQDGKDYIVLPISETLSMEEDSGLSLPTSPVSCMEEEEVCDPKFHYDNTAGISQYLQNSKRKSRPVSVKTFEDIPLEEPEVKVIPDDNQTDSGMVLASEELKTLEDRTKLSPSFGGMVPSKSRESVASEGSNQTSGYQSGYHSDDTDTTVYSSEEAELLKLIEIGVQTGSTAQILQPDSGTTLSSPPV
Procedure: as §1

[11] = biological target: PDGFR alpha (Homo sapiens, UniProt P16234); experiment: Kinase screening assay (mobility shift, LabChip); format: biochemical; conditions: 0.5 micromolar compound
PDGFR alpha, sequence (P16234 24-1089): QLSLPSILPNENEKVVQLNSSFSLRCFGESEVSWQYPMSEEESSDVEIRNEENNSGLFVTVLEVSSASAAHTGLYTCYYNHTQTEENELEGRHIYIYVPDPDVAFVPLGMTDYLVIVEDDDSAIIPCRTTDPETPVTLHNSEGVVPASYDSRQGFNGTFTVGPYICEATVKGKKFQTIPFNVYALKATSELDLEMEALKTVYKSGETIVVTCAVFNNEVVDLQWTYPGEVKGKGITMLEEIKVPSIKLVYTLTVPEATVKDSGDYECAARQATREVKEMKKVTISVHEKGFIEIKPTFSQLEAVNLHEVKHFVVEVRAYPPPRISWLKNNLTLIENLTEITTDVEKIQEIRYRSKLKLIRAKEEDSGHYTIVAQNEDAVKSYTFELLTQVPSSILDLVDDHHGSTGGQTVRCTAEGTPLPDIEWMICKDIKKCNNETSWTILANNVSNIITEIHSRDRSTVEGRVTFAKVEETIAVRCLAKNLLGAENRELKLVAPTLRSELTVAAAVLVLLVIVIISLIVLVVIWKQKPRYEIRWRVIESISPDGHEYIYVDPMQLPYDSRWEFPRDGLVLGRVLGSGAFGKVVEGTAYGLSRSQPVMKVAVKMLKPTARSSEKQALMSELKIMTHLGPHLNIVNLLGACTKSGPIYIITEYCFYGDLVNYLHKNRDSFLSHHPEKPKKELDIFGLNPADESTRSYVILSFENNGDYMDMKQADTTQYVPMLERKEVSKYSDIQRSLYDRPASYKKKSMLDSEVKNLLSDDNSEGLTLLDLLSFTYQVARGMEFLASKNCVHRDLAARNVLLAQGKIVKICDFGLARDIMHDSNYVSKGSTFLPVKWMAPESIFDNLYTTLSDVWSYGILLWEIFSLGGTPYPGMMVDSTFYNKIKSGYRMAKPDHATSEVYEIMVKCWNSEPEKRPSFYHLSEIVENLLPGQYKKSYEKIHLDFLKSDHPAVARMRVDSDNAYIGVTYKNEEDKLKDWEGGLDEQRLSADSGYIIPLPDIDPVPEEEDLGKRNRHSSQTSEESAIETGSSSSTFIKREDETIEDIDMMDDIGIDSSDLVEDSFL
Procedure: as §1

[12] = biological target: EGFR (Homo sapiens, UniProt P00533); experiment: Kinase screening assay (mobility shift, LabChip); format: biochemical; conditions: 0.5 micromolar compound
Procedure: as §1

[13] = biological target: HCK (Homo sapiens, UniProt P08631); experiment: Kinase screening assay (mobility shift, LabChip); format: biochemical; conditions: 0.5 micromolar compound
HCK, sequence (P08631 whole entry): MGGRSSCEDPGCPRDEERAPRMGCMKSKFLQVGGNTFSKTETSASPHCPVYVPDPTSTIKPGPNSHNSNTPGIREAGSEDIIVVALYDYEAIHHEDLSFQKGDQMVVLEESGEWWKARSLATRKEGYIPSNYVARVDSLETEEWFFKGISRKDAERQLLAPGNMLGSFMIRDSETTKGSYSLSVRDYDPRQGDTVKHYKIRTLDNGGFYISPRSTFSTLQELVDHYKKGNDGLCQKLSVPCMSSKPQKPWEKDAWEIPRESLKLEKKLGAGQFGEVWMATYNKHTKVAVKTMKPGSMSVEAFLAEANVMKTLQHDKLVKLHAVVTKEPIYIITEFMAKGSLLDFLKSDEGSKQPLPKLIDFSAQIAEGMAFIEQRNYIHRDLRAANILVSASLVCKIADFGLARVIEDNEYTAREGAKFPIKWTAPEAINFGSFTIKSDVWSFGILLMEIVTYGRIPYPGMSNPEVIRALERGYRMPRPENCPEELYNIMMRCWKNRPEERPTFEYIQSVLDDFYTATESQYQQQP
Procedure: as §1

[14] = tested on: MDA-MB-231 breast cancer cells; experiment: Cell viability assay (PrestoBlue); format: cell-based; conditions: Homo sapiens, 120 h, 5 days treatment
Procedure: (§2) Cells were grown in Dulbecco's Modified Eagle Medium (DMEM) or Roswell Park Memorial Institute (RPMI) medium supplemented with serum (10% fetal bovine serum) and L-glutamine (2 mM) and incubated in a Heracell 240i tissue culture incubator at 37° C. and 5% Co2.
(§3) After 48 hours, the media was aspirated from each well and replaced with 95 μl of fresh medium. Compounds, including DMSO, were prepared at 20× in DMEM medium in a separate 96-well intermediate plate. 5 μl from the intermediate plate was then added to each well containing cells. Untreated cells were incubated with DMSO (0.1% v/v). After 5 days, PrestoBlue™ cell viability reagent (10 μl) was added to each well and the plates incubated for 60-90 min. Fluorescence emission was detected using a fluorescence plate reader (excitation 540 nm, emission 590 nm). All conditions were normalised to the untreated cells (100%) and dose-response curves were fitted using GraphPad Prism software.

[15] = biological target: BRK (Homo sapiens, UniProt Q13882); experiment: Kinase screening assay (mobility shift, LabChip); format: biochemical; conditions: 0.5 micromolar compound
Procedure: as §1

[16] = biological target: ABL (Homo sapiens, UniProt P00519); experiment: Kinase screening assay (mobility shift, LabChip); format: biochemical; conditions: 0.5 micromolar compound
Procedure: as §1

[17] = tested on: SRC and its family members; experiment: Kinase screening assay, selectivity across the panel; format: biochemical; conditions: kinase panel of Table 1, 0.5 micromolar
Procedure: as §1

[18] = tested on: cancer cell lines; experiment: Screening in cancer cell lines (cell viability); format: cell-based
Procedure: as §2, §3

| Structure (SMILES) | inhibition at 0.5 µM [1] [%] | inhibition at 0.5 µM [2] [%] | inhibition at 0.5 µM [3] [%] | inhibition at 0.5 µM [4] [%] | inhibition at 0.5 µM [5] [%] | inhibition at 0.5 µM [6] [%] | inhibition at 0.5 µM [7] [%] | inhibition at 0.5 µM [8] [%] | inhibition at 0.5 µM [9] [%] | inhibition at 0.5 µM [10] [%] | inhibition at 0.5 µM [11] [%] | inhibition at 0.5 µM [12] [%] | inhibition at 0.5 µM [13] [%] | GI50 [14] [nM] | inhibition at 0.5 µM [15] [%] | inhibition at 0.5 µM [16] [%] | selectivity for SRC and its family members over other kinases [17] | potency and selectivity in cancer cell lines compared with parent compound 506 [18] |
| --- | --- | --- | --- | --- | --- | --- | --- | --- | --- | --- | --- | --- | --- | --- | --- | --- | --- | --- |
| COc1cc(-c2nn(CCN3CCC(N(C)C)CC3)c3ncnc(N)c23)ccc1NC(=O)OC(C)(C)C [Compound 506, Tert-butyl (4-(4-amino-1-(2-(4-(dimethylamino)piperidin-1-yl)ethyl)-1H-pyrazolo[3,4-d]pyrimidin-3-yl)-2-methoxyphenyl)carbamate, reference compound] | 101 | 4.4 | 104 | 100 | 3.8 | 99.7 | 96.7 | 101 | 100 | 2.9 | 13.5 | 46.1 | 101 |  |  |  |  |  |
| CNC1CCN(CCn2nc(-c3ccc(NC(=O)OC(C)(C)C)c(OC)c3)c3c(N)ncnc32)CC1 [Compound 5a, tert-butyl (4-(4-amino-1-(2-(4-(methylamino)piperidin-1-yl)ethyl)-1H-pyrazolo[3,4-d]pyrimidin-3-yl)-2-methoxyphenyl)carbamate] | 102 | 2.8 | 107 | 99.4 | -0.3 | 99.7 | 97.6 | 102 | 101 | 1.7 | 13.6 | 46.3 | 105 | 16.2 | 98.5 | 29.2 | more selective than compound 506 | retains the potency and selectivity characteristics of the parent compound 506 |
| COc1cc(-c2nn(CCN3CCC(NC(C)C)CC3)c3ncnc(N)c23)ccc1NC(=O)OC(C)(C)C [Compound 8, tert-butyl (4-(4-amino-1-(2-(4-(isopropylamino)piperidin-1-yl)ethyl)-1H-pyrazolo[3,4-d]pyrimidin-3-yl)-2-methoxyphenyl)carbamate] | 101 | 2.7 | 101 | 100 | -2.3 | 102 | 94.9 | 97.3 | 100 | -7.3 | 12.2 | 58.2 | 98.7 | 12.5 | 99.5 | 24.2 | more selective than compound 506 |  |

— patent US20250092046A1, “TYROSINE KINASE INHIBITORS” (THE UNIVERSITY COURT OF THE UNIVERSITY OF EDINBURGH, priority 2021, published 2025)
